We go through two compounds from ChEMBL document CHEMBL4382208, “Design, synthesis and biological evaluation of novel 2-sulfonylindoles as potential anti-inflammatory therapeutic agents for treatment of acute lung injury” (Eur J Med Chem, 2018).

Each structure is given as a SMILES string. Active and inactive are the calls of the source. No cut-off for these calls is given here.

In data set [1] the test system is Mus musculus. The data set is described as follows: Antiinflammatory activity in C57BL/6 mouse assessed as inhibition of LPS-induced IL-6 level in bronchoalveolar lavage fluid at 10 to 20 mg/kg, ip pretreated for 30 mins followed by LPS addition measured after 6 hrs. Type of data set: functional, organism-based.
The test system of data set [2] is Mus musculus. Nature of the data set: Antiinflammatory activity in C57BL/6 mouse assessed as inhibition of LPS-induced VCAM-1 mRNA expression in lungs at 10 to 20 mg/kg, ip by RT-qPCR analysis. Type of data set: functional, organism-based. For orientation: In qPCR the cycle at which signal appears reflects the starting amount.
Data set [3] concerns Mus musculus. The data set is described as follows: Antiinflammatory activity in C57BL/6 mouse assessed as inhibition of LPS-induced inflammatory cell infiltration at 10 to 20 mg/kg, ip pretreated for 30 mins followed by LPS addition measured after 6 hrs by hematoxylin and eosin staining based microscopic analysis. In kind it is functional, organism-based.
Data set [4] relates to Mus musculus. The data set is described as follows: Antiinflammatory activity in C57BL/6 mouse assessed as inhibition of LPS-induced alveolar hemorrhage at 10 to 20 mg/kg, ip pretreated for 30 mins followed by LPS addition measured after 6 hrs by hematoxylin and eosin staining based microscopic analysis. Type of data set: functional, organism-based.
Data set [5] has as its system Peritoneal macrophage. Nature of the data set: Antiinflammatory activity in mouse primary peritoneal macrophages assessed as inhibition of LPS-induced IL-6 production preincubated for 30 mins followed by LPS addition and measured after 24 hrs by ELISA. In kind it is functional, cell-based.
The test system of data set [6] is Mus musculus. The data set is described as follows: Antiinflammatory activity in C57BL/6 mouse assessed as reduction in lung wet/dry ratio at 10 to 20 mg/kg, ip pretreated for 30 mins followed by LPS addition measured after 6 hrs. In kind it is functional, organism-based.
Data set [7] concerns Peritoneal macrophage. Nature of the data set: Antiinflammatory activity in mouse primary peritoneal macrophages assessed as inhibition of LPS-induced IL-6 mRNA expression at 5 to 10 uM by RT-qPCR analysis. Type of data set: functional, cell-based.
Data set [8] concerns Peritoneal macrophage. The data set is described as follows: Antiinflammatory activity in mouse primary peritoneal macrophages assessed as inhibition of LPS-induced VCAM-1 mRNA expression at 5 to 10 uM by RT-qPCR analysis. In kind it is functional, cell-based.
Data set [9] has as its system Mus musculus. Nature of the data set: Antiinflammatory activity in C57BL/6 mouse assessed as inhibition of LPS-induced macrophage filtration in lung by measuring CD68 protein expression at 10 to 20 mg/kg, ip pretreated for 30 mins followed by LPS addition measured after 6 hrs by immunohistochemistry. In kind it is functional, organism-based.
The test system of data set [10] is Mus musculus. Nature of the data set: Antiinflammatory activity in C57BL/6 mouse assessed as inhibition of LPS-induced neutrophil filtration in lung by measuring myeloperoxidase activity at 10 to 20 mg/kg, ip pretreated for 30 mins followed by LPS addition measured after 6 hrs by Giemsa staining-based assay. Type of data set: functional, organism-based.
For data set [11], the system named is Mus musculus. The data set is described as follows: Antiinflammatory activity in C57BL/6 mouse assessed as inhibition of LPS-induced TNF-alpha level in bronchoalveolar lavage fluid at 10 to 20 mg/kg, ip pretreated for 30 mins followed by LPS addition measured after 6 hrs. In kind it is functional, organism-based.
For data set [12], the system named is Mus musculus. The data set is described as follows: Antiinflammatory activity in C57BL/6 mouse assessed as inhibition of LPS-induced IL-6 mRNA expression in lungs at 10 to 20 mg/kg, ip by RT-qPCR analysis. In kind it is functional, organism-based.
The test system of data set [13] is Mus musculus. The data set is described as follows: Antiinflammatory activity in C57BL/6 mouse assessed as inhibition of LPS-induced lung edema at 10 to 20 mg/kg, ip pretreated for 30 mins followed by LPS addition measured after 6 hrs by hematoxylin and eosin staining based microscopic analysis. In kind it is functional, organism-based.
Data set [14] concerns Mus musculus. The data set is described as follows: Antiinflammatory activity in C57BL/6 mouse assessed as inhibition of LPS-induced total protein level in bronchoalveolar lavage fluid at 10 to 20 mg/kg, ip pretreated for 30 mins followed by LPS addition measured after 6 hrs. Type of data set: functional, organism-based.
Data set [15] concerns Peritoneal macrophage. Nature of the data set: Antiinflammatory activity in mouse primary peritoneal macrophages assessed as inhibition of LPS-induced TNF-alpha production preincubated for 30 mins followed by LPS addition and measured after 24 hrs by ELISA. Type of data set: functional, cell-based.
The subject of data set [16] is Peritoneal macrophage. Nature of the data set: Antiinflammatory activity in mouse primary peritoneal macrophages assessed as inhibition of LPS-induced TNF-alpha production at 10 uM preincubated for 30 mins followed by LPS addition and measured after 24 hrs by ELISA relative to control. In kind it is functional. In general terms: An ELISA detects its analyte on a solid surface through an enzyme-linked reagent.

The subject of data set [17] is Peritoneal macrophage. The data set is described as follows: Antiinflammatory activity in mouse primary peritoneal macrophages assessed as inhibition of LPS-induced IL-6 production at 10 uM preincubated for 30 mins followed by LPS addition and measured after 24 hrs by ELISA relative to control. In kind it is functional.
The subject of data set [18] is Mus musculus. The data set is described as follows: Antiinflammatory activity in C57BL/6 mouse assessed as inhibition of LPS-induced IL-1beta mRNA expression in lungs at 10 to 20 mg/kg, ip by RT-qPCR analysis. In kind it is functional, organism-based.
Data set [19] deals with Mus musculus. Nature of the data set: Antiinflammatory activity in C57BL/6 mouse assessed as inhibition of LPS-induced destruction of alveolar structure at 10 to 20 mg/kg, ip pretreated for 30 mins followed by LPS addition measured after 6 hrs by hematoxylin and eosin staining based microscopic analysis. Type of data set: functional, organism-based.
Data set [20] deals with Peritoneal macrophage. The data set is described as follows: Antiinflammatory activity in mouse primary peritoneal macrophages assessed as inhibition of LPS-induced IL-1beta mRNA expression at 5 to 10 uM by RT-qPCR analysis. Type of data set: functional, cell-based.
In data set [21] the test system is Peritoneal macrophage. The data set is described as follows: Cytotoxicity against mouse primary peritoneal macrophages assessed as reduction in cell viability at 10 uM after 24 hrs by MTT assay. In kind it is cell-based. (Tetrazolium assays rely on reduction of a dye to a coloured formazan, in cell work by metabolically active cells.)
In data set [22] the test system is Mus musculus. The data set is described as follows: Antiinflammatory activity in C57BL/6 mouse assessed as inhibition of LPS-induced total number of cells in bronchoalveolar lavage fluid at 10 to 20 mg/kg, ip pretreated for 30 mins followed by LPS addition measured after 6 hrs by Giemsa staining-based assay. Type of data set: functional, organism-based.

As to `Cn1c(S(=O)(=O)c2ccc(C(F)(F)F)cc2)cc2ccccc21`, the inhibition entry in data set [1], in data set [2], in data set [3], in data set [4], in [7] and in data set [8] was “Active” throughout. The inhibition result in [9], in data set [10], in [11], in data set [12], in data set [13] and in data set [14] was “Active” each time. For the same compound, the inhibition result in data set [18], in data set [19], in [20] and in data set [22] was “Active” in each case. For the same compound, the results for the IC50 in [5] and in data set [15] were 1820 nM and 8010 nM, respectively. The inhibition result in [5] and in [15] was “Dose-dependent effect” each time. Also, the result in data set [6] was Active. Moreover, the figures for the inhibition at 10 µM in [16] and in data set [17] were 82% and 88%, respectively. In addition, in data set [21], the Activity entry is reported as “Non-Toxic”.
With `Cn1c(S(=O)(=O)c2ccc(C(C)(C)C)cc2)cc2ccccc21`, the inhibition entry in [1], in data set [2], in data set [3], in data set [4], in data set [7] and in [8] was “Active” each time. Further, the inhibition entry in data set [9], in data set [10], in data set [11], in [12], in data set [13] and in data set [14] was “Active” in each case. For the same compound, the inhibition entry in [18], in data set [19], in data set [20] and in data set [22] was “Active” in each case. In addition, the IC50 in data set [5] is 1100 nM; in [15], 3080 nM. The inhibition entry in data set [5] and in data set [15] was “Dose-dependent effect” throughout. Also, in data set [6], the result was Active. Besides, the inhibition at 10 µM was 82% in data set [16] and 88% in data set [17]. The Activity entry in data set [21] was “Non-Toxic”.

Broadly, the inhibition is the share of the control response that was lost under treatment. The term IC50 denotes the concentration that inhibits the measured activity by half.
